Laboratory results published in patent US20260055088A1, “HETEROCYCLIC COMPOUND, METHOD FOR PREPARING SAME, AND PHARMACEUTICAL USE THEREOF” (Jiangsu Hengrui Pharmaceuticals Co., Ltd., priority 2022, published 2026).

Test: Pharmacokinetic evaluation in SD rats (i.g.)
Type: in vivo
Details: male, Sprague-Dawley (SD), rat, plasma, po, 2.0 mg/kg; for AUC(0-t): read-out: Area under curve AUC0-t; for CL/F: read-out: Clearance rate CL/F; for half-life: read-out: Half-life T½ (converted); for Cmax: read-out: Plasma concentration Cmax
Procedure: SD rats were used as test animals. After intragastric (i.g.) administration of the example compounds to SD rats, the plasma concentrations of the compounds at different time points were determined by the LC/MS/MS method. The pharmacokinetic behaviors of the compounds of the present disclosure in SD rats were studied, and their pharmacokinetic profiles were evaluated.
Compounds 16 and 32: Four male SD rats, provided by Vital River Laboratory Animal Technology Co., Ltd. The animals were fasted overnight and then intragastrically dosed.
Compound 38: Two male SD rats, provided by Zhejiang Vital River Laboratory Animal Technology Co., Ltd. The animals were fasted overnight and then intragastrically dosed.
Compounds 16 and 32: Certain amounts of the test compounds were weighed out, and 5% DMSO+5% tween 80+90% normal saline was added to prepare 0.2 mg/mL colorless clear solutions.
Compound 38: A certain amount of the test compound was weighed out, and 25% PEG400+75% (10% TPGS+1% HPMC K100LV) was added to prepare a 5 mg/mL colorless clear solution.
Compounds 16 and 32: The administration dose was 2 mg/kg, and the administration volume was 10.0 mL/kg.
Compound 38: The administration dose was 50 mg/kg, and the administration volume was 10.0 mL/kg.
0.2-mL blood samples were collected from the orbit before administration and 0.25, 0.5, 1.0, 2.0, 4.0, 6.0, 8.0, 11.0, and 24.0 h after administration, placed into EDTA-K2 anticoagulation test tubes, and centrifuged at 10,000 rpm for 1 min (4° C.), and the plasma was separated within 1 h and stored with dry ice before analysis. The procedures from the blood collection to the centrifugation were performed under ice-bath conditions. Access to food was given 2 h after administration.
Compounds 16 and 32: Determination of the plasma concentrations of the test compounds in SD rats after the compounds were administered at different concentrations: A 25-μL sample of the SD rat plasma collected at each time point after administration was taken, and 200 μL of acetonitrile containing an internal standard (verapamil, 100 ng/mL) was added. The mixture was vortexed and centrifuged at 3700 rpm for 10 min. 0.1 μL of the supernatant was taken for LC/MS/MS analysis.
Compound 38: Determination of the plasma concentration of the test compound in SD rats after the compound was administered at different concentrations: A 25-μL sample of the SD rat plasma collected at each time point after administration was taken, and 200 μL of acetonitrile containing an internal standard (dexamethasone, 100 ng/mL) was added. The mixture was vortexed and centrifuged at 4000 rpm for 15 min. 1 μL of the supernatant was taken for LC/MS/MS analysis.

| SMILES | bioavailability | AUC(0-t) | CL/F | half-life | Cmax |
| --- | --- | --- | --- | --- | --- |
| CO/N=C(\N)c1cc(NC(=O)[C@@H]2O[C@@](C)(C(F)(F)F)[C@@H](C)[C@H]2c2ccc(F)c(F)c2OC)ccn1 [Example 16] | 51.3% | 329 ng·h/mL | 101 mL/min/kg | 9.1 h | 120 ng/mL |
| COc1c([C@H]2[C@H](C(=O)Nc3ccnc(/C(N)=N/O)c3)O[C@@](C)(C(F)(F)F)[C@H]2C)ccc(F)c1F [Example 32] | 24.7% | 321 ng·h/mL | 96.9 mL/min/kg | 2.6 h | 85.7 ng/mL |
